Assay results from patent US12606852B2, “Conversion of lignin-derived monomers to muconate by engineered pseudomonas” (Alliance for Sustainable Energy, LLC, priority 2021, dated 2026).
Where “and” joins values, the source holds several entries; their conditions need not be identical. Identical values can stand only once. Like-named read-outs stand apart in the source and are kept apart here.

Tests used:
[1] = target: T1, Paenibacillus sp. JJ-1b PraI (para-hydroxybenzoate-3-hydroxylase, PHBH), BAH79107, tagless, praI_EC gene SEQ ID NO: 3 (Paenibacillus sp., UniProt C4TP09); test: Steady-state kinetic analysis of PraI (hydroxylation of 4-hydroxybenzoate); type: biochemical; settings: for kcat (NAD(P)H): air-saturated, 200 μM 4-hydroxybenzoate, pH 8, 25° C.
T1 construct: His-tagged form only for crystallography

[2] = target: Pseudomonas putida KT2440 PobA (para-hydroxybenzoate-3-hydroxylase, PHBH), native, PP_3537, tagless, pobA_EC gene SEQ ID NO: 1 (Pseudomonas putida, UniProt Q88H28); test: Steady-state kinetic analysis of PobA (hydroxylation of 4-hydroxybenzoate); type: biochemical; settings: for kcat (NAD(P)H): NADPH varied, air-saturated, 200 μM 4-hydroxybenzoate, pH 8, 25° C.
[3] = tested on: Pseudomonas fluorescens PHBH (para-hydroxybenzoate-3-hydroxylase); settings: read-out: KM^NADPH; reported value, natively produced PHBH; cited from earlier work
[4] = tested on: Pseudomonas aeruginosa PHBH (para-hydroxybenzoate-3-hydroxylase); settings: reported value, natively produced PHBH, cited from earlier work

T1 sequence (C4TP09 2-394): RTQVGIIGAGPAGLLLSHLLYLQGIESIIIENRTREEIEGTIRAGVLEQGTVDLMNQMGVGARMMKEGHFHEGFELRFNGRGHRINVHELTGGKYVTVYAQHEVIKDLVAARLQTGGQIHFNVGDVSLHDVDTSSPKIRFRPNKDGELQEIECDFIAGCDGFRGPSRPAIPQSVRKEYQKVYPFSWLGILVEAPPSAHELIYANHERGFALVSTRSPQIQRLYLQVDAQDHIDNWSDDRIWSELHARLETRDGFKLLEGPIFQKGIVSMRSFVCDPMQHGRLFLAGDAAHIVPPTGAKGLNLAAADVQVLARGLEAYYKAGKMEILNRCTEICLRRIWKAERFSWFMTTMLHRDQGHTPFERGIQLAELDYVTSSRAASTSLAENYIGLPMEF
Pseudomonas putida KT2440 PobA (para-hydroxybenzoate-3-hydroxylase, PHBH), native, PP_3537, tagless, pobA_EC gene SEQ ID NO: 1, sequence (Q88H28 1-395): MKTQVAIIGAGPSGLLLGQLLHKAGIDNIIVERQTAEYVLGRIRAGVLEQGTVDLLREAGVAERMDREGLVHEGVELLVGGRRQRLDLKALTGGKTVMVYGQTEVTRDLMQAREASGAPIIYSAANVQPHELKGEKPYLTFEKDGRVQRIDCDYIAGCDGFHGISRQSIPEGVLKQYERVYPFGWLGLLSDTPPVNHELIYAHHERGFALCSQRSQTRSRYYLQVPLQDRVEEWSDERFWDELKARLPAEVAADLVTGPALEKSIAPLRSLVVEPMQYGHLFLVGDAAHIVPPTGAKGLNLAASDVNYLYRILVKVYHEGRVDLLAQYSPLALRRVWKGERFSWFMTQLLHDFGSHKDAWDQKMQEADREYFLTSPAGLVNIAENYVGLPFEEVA

Q: With `O=C(O)c1ccc(O)cc1` [4-hydroxybenzoate] as the compound, how does the Km ([1]; read-out: KM (4-hydroxybenzoate), pH 8) read?
A: 16 ± 1 µM

Q: Which results are given for `NC(=O)C1=CN([C@@H]2O[C@H](COP(=O)(O)OP(=O)(O)OC[C@H]3O[C@@H](n4cnc5c(N)ncnc54)[C@H](O)[C@@H]3O)[C@@H](O)[C@H]2O)C=CC1` [NADH]?
A: utilization as reducing equivalent ([2]; O2 consumption in mixture containing PobA and 4HB): unreactive; kcat (NAD(P)H) ([1]; NADH varied, NADH detection (340 nm)): 25 ± 2 s⁻¹; kcat (NAD(P)H) ([1]; NADH varied, O2 detection (oxygraph)): 22 ± 2 s⁻¹; substrate specificity for NADH (slightly lowered) ([1]; NADH, relative to NADPH): about 60%

Q: Which Km [3] does the source give for `NC(=O)C1=CN([C@@H]2O[C@H](COP(=O)(O)OP(=O)(O)OC[C@H]3O[C@@H](n4cnc5c(N)ncnc54)[C@H](OP(=O)(O)O)[C@@H]3O)[C@@H](O)[C@H]2O)C=CC1` [NADPH] here?
A: 50 µM

Q: And the “kcat (NAD(P)H)” value ([2]; NADPH detection (340 nm))?
A: 50 ± 5 s⁻¹

Q: And the “kcat (NAD(P)H)” value ([2]; O2 detection (oxygraph))?
A: 47 ± 4 s⁻¹

Q: What about the “kcat (NAD(P)H)” value ([1]; NADPH varied, NADPH detection (340 nm)) of the same compound?
A: 27 ± 2 s⁻¹

Q: And the “kcat (NAD(P)H)” value ([1]; NADPH varied, O2 detection (oxygraph))?
A: 23 ± 2 s⁻¹

Q: What about the “difference in substrate specificity towards NADPH, PobA and PraI” value ([1]; average, PraI compared with PobA, different combination of the reactants) of the same compound?
A: ≤ two-fold

Q: And the Km ([4]; read-out: KM^NADPH)?
A: 23 µM

Q: With `O=O` [O2, molecular oxygen] as the compound, how does the “kcat (O2)” value ([2]; pH 8) read?
A: 53 ± 5 s⁻¹

Q: And the Km ([2]; pH 8, read-out: KM (O2))?
A: 70 ± 5 µM

Q: And the “kcat (O2)” value ([1]; pH 8)?
A: 25 ± 2 s⁻¹ and 22 ± 2 s⁻¹

Q: And the Km ([1]; pH 8, read-out: KM (O2))?
A: 68 µM and 54 µM

Q: And the Km ([4]; read-out: KM^oxygen)?
A: 37 µM
